{"source": "ChEMBL document CHEMBL4507295", "about": "(2021)", "conditions_in_all_cases": "Compound concentration 1000.0 nM", "key": {"[1]": {"target": "Serine/threonine-protein kinase PAK 4 (Homo sapiens) (UniProt O96013)"}, "[2]": {"target": "Serine/threonine-protein kinase RIO2 (Homo sapiens) (UniProt Q9BVS4)"}, "[3]": {"target": "RAC-beta serine/threonine-protein kinase (Homo sapiens) (UniProt P31751)", "sequence (P31751 whole entry)": "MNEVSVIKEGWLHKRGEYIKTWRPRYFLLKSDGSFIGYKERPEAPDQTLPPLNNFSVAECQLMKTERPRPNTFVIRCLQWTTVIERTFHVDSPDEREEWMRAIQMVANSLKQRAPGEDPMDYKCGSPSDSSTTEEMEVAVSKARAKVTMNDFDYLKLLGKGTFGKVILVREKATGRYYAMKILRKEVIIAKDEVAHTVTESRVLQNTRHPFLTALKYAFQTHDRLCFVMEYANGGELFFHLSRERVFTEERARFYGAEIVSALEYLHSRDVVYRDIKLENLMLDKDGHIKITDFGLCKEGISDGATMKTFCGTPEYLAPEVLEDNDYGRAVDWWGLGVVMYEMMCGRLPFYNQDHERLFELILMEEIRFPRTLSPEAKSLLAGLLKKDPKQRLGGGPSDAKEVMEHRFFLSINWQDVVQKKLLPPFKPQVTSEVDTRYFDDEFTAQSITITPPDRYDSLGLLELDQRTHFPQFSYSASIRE"}, "[4]": {"target": "Mitogen-activated protein kinase kinase kinase kinase 4 (Homo sapiens) (UniProt O95819)"}, "[5]": {"target": "Dual specificity tyrosine-phosphorylation-regulated kinase 1B (Homo sapiens) (UniProt Q9Y463)", "sequence (Q9Y463 whole entry, looked up)": "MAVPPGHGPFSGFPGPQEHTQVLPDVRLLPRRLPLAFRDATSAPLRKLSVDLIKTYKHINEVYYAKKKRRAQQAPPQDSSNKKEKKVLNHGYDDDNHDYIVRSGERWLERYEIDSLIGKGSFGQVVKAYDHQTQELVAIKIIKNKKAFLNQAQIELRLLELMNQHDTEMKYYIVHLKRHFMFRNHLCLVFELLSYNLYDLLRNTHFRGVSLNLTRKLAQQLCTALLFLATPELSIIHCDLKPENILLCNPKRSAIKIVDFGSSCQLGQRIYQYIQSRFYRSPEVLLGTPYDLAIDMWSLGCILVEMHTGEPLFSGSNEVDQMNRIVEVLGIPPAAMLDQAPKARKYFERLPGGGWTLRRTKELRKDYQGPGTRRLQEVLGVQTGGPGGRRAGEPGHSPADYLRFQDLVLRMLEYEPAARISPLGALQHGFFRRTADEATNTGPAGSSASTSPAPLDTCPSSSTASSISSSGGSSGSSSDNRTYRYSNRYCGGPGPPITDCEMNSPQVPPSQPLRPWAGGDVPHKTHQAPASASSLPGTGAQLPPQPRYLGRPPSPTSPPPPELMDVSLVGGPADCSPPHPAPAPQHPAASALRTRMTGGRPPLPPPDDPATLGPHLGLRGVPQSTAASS"}, "[6]": {"target": "Beta-adrenergic receptor kinase 1 (Homo sapiens) (UniProt P25098)"}, "[7]": {"target": "Calcium/calmodulin-dependent protein kinase type II subunit alpha (Homo sapiens) (UniProt Q9UQM7)", "sequence (Q9UQM7 whole entry)": "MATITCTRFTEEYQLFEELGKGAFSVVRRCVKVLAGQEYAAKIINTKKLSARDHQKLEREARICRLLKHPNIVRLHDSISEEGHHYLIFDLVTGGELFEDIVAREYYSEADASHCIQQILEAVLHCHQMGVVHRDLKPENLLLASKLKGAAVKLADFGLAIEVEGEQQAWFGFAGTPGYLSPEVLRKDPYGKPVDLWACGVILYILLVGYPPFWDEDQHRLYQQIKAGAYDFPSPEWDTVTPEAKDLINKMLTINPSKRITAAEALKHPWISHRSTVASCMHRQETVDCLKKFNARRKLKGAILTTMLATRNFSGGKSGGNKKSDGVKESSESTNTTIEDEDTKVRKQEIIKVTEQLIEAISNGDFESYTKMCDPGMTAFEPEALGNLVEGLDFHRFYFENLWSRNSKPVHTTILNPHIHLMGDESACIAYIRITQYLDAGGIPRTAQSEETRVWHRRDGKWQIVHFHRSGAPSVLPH"}, "[8]": {"tested_on": "Mast/stem cell growth factor receptor Kit (Homo sapiens), P10721 [D816H]"}, "[9]": {"target": "Cyclin-dependent kinase 15 (Homo sapiens) (UniProt Q96Q40)", "sequence (Q96Q40 whole entry)": "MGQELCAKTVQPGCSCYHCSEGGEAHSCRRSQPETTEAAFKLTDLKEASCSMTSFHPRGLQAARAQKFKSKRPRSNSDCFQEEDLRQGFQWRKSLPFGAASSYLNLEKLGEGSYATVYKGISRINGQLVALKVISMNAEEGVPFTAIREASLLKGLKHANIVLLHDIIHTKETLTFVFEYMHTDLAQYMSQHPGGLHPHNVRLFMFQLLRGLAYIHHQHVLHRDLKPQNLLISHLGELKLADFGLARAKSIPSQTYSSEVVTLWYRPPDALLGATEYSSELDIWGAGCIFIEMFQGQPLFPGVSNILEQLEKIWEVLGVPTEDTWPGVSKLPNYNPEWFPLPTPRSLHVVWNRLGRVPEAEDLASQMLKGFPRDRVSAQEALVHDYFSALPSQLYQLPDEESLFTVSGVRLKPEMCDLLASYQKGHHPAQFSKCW"}, "[10]": {"target": "Ephrin type-B receptor 3 (Homo sapiens) (UniProt P54753)"}, "[11]": {"target": "Serine/threonine-protein kinase SBK1 (Homo sapiens) (UniProt Q52WX2)"}, "[12]": {"target": "Proto-oncogene tyrosine-protein kinase ROS (Homo sapiens) (UniProt P08922)"}, "[13]": {"target": "cAMP-dependent protein kinase catalytic subunit PRKX (Homo sapiens) (UniProt P51817)", "sequence (P51817 whole entry)": "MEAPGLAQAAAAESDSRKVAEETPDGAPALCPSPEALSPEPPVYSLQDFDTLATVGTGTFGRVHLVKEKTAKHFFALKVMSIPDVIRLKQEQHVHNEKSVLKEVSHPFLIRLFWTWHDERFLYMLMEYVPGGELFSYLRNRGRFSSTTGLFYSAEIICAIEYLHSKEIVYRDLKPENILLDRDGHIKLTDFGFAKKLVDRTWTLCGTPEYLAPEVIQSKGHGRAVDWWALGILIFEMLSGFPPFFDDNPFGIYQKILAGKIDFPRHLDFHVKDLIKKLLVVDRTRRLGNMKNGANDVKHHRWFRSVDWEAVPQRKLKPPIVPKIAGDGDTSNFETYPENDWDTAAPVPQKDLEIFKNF"}, "[14]": {"target": "Insulin receptor-related protein (Homo sapiens) (UniProt P14616)"}, "[15]": {"target": "Bone morphogenetic protein receptor type-1A (Homo sapiens) (UniProt P36894)", "sequence (P36894 whole entry)": "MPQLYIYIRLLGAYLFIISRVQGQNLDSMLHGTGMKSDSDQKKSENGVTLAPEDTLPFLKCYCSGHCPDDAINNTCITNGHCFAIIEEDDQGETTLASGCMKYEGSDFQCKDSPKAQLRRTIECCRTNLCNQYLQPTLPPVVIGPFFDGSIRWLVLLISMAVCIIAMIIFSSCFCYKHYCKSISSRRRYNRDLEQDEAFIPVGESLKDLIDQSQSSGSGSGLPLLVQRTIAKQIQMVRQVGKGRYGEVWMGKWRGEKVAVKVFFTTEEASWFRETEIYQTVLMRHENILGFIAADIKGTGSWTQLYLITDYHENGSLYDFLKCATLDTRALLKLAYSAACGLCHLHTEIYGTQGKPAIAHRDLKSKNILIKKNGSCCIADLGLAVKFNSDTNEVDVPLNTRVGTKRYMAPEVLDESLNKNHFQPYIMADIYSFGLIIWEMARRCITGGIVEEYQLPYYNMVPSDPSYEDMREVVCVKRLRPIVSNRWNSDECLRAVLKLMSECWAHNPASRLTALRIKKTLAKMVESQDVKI"}, "[16]": {"target": "Fibroblast growth factor receptor 4 (Homo sapiens) (UniProt P22455)"}, "[17]": {"target": "Serine/threonine-protein kinase 32A (Homo sapiens) (UniProt Q8WU08)"}, "[18]": {"target": "Serine/threonine-protein kinase Nek3 (Homo sapiens) (UniProt P51956)"}, "[19]": {"target": "AP2-associated protein kinase 1 (Homo sapiens) (UniProt Q2M2I8)"}, "[20]": {"tested_on": "Receptor-type tyrosine-protein kinase FLT3 (Homo sapiens), P36888 [D835Y]"}, "[21]": {"target": "Testis-specific serine/threonine-protein kinase 1 (Homo sapiens) (UniProt Q9BXA7)"}, "[22]": {"target": "Macrophage colony-stimulating factor 1 receptor (Homo sapiens) (UniProt P07333)"}, "[23]": {"target": "Mast/stem cell growth factor receptor Kit (Homo sapiens) (UniProt P10721)"}, "[24]": {"target": "Tyrosine-protein kinase Tec (Homo sapiens) (UniProt P42680)"}, "[25]": {"target": "Mitogen-activated protein kinase 10 (Homo sapiens) (UniProt P53779)"}, "[26]": {"target": "Mitogen-activated protein kinase kinase kinase 19 (Homo sapiens) (UniProt Q56UN5)", "sequence (Q56UN5 whole entry)": "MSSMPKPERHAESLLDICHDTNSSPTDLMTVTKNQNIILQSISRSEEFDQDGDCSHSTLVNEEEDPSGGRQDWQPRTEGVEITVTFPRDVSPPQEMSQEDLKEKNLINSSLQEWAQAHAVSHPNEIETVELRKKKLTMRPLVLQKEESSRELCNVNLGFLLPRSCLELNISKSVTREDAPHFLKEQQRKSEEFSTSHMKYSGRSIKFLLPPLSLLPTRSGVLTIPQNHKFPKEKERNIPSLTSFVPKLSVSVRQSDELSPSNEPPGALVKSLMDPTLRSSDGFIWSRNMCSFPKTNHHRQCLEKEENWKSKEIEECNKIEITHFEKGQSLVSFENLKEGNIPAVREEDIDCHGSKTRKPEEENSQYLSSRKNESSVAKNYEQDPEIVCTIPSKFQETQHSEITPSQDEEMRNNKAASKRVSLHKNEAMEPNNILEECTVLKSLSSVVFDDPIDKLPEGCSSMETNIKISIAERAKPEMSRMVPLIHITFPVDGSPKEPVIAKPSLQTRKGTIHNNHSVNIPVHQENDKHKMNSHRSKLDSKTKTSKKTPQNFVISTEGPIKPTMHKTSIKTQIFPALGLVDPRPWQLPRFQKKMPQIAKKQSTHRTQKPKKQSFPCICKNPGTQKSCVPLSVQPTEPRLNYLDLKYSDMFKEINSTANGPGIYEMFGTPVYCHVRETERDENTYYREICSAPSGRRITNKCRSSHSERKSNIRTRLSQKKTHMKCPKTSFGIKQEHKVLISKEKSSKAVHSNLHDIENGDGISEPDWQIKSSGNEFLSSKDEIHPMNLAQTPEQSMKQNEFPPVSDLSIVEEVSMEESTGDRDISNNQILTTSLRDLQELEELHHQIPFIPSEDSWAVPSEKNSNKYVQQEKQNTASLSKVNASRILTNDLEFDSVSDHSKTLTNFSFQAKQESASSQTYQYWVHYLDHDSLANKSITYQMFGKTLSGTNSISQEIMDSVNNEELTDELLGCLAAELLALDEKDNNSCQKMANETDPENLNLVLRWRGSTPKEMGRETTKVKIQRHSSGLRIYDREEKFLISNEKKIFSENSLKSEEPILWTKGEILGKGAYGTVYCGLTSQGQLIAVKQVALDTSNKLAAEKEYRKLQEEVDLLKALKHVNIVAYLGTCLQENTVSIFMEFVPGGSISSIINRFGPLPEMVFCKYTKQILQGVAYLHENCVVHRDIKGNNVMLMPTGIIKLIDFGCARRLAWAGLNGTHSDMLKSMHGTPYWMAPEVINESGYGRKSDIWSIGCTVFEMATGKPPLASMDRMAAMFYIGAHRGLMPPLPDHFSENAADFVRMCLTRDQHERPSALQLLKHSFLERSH"}, "[27]": {"tested_on": "Receptor-type tyrosine-protein kinase FLT3 (Homo sapiens), P36888 [K663Q]"}, "[28]": {"tested_on": "Receptor-type tyrosine-protein kinase FLT3 (Homo sapiens), P36888 [UNDEFINED MUTATION]"}, "[29]": {"tested_on": "Mast/stem cell growth factor receptor Kit (Homo sapiens), P10721 [V559D,T670I]"}, "[30]": {"target": "Ribosomal protein S6 kinase alpha-3 (Homo sapiens) (UniProt P51812)"}, "[31]": {"target": "Cyclin-dependent kinase 5 (Homo sapiens) (UniProt Q00535)"}, "[32]": {"tested_on": "Phosphatidylinositol 4,5-bisphosphate 3-kinase catalytic subunit alpha isoform (Homo sapiens), P42336 [E545K]"}, "[33]": {"target": "Myosin light chain kinase 2, skeletal/cardiac muscle (Homo sapiens) (UniProt Q9H1R3)"}, "[34]": {"target": "Serine/threonine-protein kinase tousled-like 1 (Homo sapiens) (UniProt Q9UKI8)"}, "[35]": {"target": "Phosphatidylinositol 5-phosphate 4-kinase type-2 gamma (Homo sapiens) (UniProt Q8TBX8)"}, "[36]": {"tested_on": "Tyrosine-protein kinase ABL1 (Homo sapiens), P00519 [Q252H]"}, "[37]": {"target": "Dual specificity protein kinase TTK (Homo sapiens) (UniProt P33981)"}, "[38]": {"target": "Serine/threonine-protein kinase PAK 2 (Homo sapiens) (UniProt Q13177)", "sequence (Q13177 whole entry)": "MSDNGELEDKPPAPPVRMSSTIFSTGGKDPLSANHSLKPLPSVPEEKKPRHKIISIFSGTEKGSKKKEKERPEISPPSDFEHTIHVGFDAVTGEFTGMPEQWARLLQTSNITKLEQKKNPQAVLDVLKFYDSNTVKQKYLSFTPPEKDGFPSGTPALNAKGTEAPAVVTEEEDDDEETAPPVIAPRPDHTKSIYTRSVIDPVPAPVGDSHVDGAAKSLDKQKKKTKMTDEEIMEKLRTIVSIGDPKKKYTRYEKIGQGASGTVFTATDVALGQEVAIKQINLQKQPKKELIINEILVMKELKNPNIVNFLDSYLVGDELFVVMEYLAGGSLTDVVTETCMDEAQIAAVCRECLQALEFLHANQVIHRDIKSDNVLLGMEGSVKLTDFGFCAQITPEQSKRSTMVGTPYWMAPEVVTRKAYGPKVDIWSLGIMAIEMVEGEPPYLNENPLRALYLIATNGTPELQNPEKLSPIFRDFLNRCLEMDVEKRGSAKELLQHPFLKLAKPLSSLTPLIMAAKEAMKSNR"}, "[39]": {"target": "Tyrosine-protein kinase receptor UFO (Homo sapiens) (UniProt P30530)"}, "[40]": {"target": "Receptor-interacting serine/threonine-protein kinase 2 (Homo sapiens) (UniProt O43353)"}, "[41]": {"target": "Serine/threonine-protein kinase Sgk3 (Homo sapiens) (UniProt Q96BR1)"}, "[42]": {"target": "Tyrosine-protein kinase HCK (Homo sapiens) (UniProt P08631)"}, "[43]": {"target": "Casein kinase I isoform gamma-3 (Homo sapiens) (UniProt Q9Y6M4)"}, "[44]": {"target": "Serine/threonine-protein kinase BRSK1 (Homo sapiens) (UniProt Q8TDC3)"}}}
{"smiles": "N#CC1(c2ccccn2)CCN(Cc2cc(C(=O)O)c(=O)n3ccccc23)CC1", "note": "[MSD-M1PAM]", "values": [{"measurement": "residual activity", "setting": "[1]", "value": 100, "unit": "%"}, {"measurement": "residual activity", "setting": "[2]", "value": 92, "unit": "%"}, {"measurement": "residual activity", "setting": "[3]", "value": 73, "unit": "%"}, {"measurement": "residual activity", "setting": "[4]", "value": 87, "unit": "%"}, {"measurement": "residual activity", "setting": "[5]", "value": 98, "unit": "%"}, {"measurement": "residual activity", "setting": "[6]", "value": 93, "unit": "%"}, {"measurement": "residual activity", "setting": "[7]", "value": 83, "unit": "%"}, {"measurement": "residual activity", "setting": "[8]", "value": 85, "unit": "%"}, {"measurement": "residual activity", "setting": "[9]", "value": 100, "unit": "%"}, {"measurement": "residual activity", "setting": "[10]", "value": 92, "unit": "%"}, {"measurement": "residual activity", "setting": "[11]", "value": 83, "unit": "%"}, {"measurement": "residual activity", "setting": "[12]", "value": 90, "unit": "%"}, {"measurement": "residual activity", "setting": "[13]", "value": 100, "unit": "%"}, {"measurement": "residual activity", "setting": "[14]", "value": 97, "unit": "%"}, {"measurement": "residual activity", "setting": "[15]", "value": 97, "unit": "%"}, {"measurement": "residual activity", "setting": "[16]", "value": 100, "unit": "%"}, {"measurement": "residual activity", "setting": "[17]", "value": 90, "unit": "%"}, {"measurement": "residual activity", "setting": "[18]", "value": 66, "unit": "%"}, {"measurement": "residual activity", "setting": "[19]", "value": 100, "unit": "%"}, {"measurement": "residual activity", "setting": "[20]", "value": 95, "unit": "%"}, {"measurement": "residual activity", "setting": "[21]", "value": 74, "unit": "%"}, {"measurement": "residual activity", "setting": "[22]", "value": 100, "unit": "%"}, {"measurement": "residual activity", "setting": "[23]", "value": 100, "unit": "%"}, {"measurement": "residual activity", "setting": "[24]", "value": 100, "unit": "%"}, {"measurement": "residual activity", "setting": "[25]", "value": 82, "unit": "%"}, {"measurement": "residual activity", "setting": "[26]", "value": 77, "unit": "%"}, {"measurement": "residual activity", "setting": "[27]", "value": 100, "unit": "%"}, {"measurement": "residual activity", "setting": "[28]", "value": 94, "unit": "%"}, {"measurement": "residual activity", "setting": "[29]", "value": 100, "unit": "%"}, {"measurement": "residual activity", "setting": "[30]", "value": 81, "unit": "%"}, {"measurement": "residual activity", "setting": "[31]", "value": 100, "unit": "%"}, {"measurement": "residual activity", "setting": "[32]", "value": 100, "unit": "%"}, {"measurement": "residual activity", "setting": "[33]", "value": 94, "unit": "%"}, {"measurement": "residual activity", "setting": "[34]", "value": 97, "unit": "%"}, {"measurement": "residual activity", "setting": "[35]", "value": 99, "unit": "%"}, {"measurement": "residual activity", "setting": "[36]", "value": 72, "unit": "%"}, {"measurement": "residual activity", "setting": "[37]", "value": 88, "unit": "%"}, {"measurement": "residual activity", "setting": "[38]", "value": 77, "unit": "%"}, {"measurement": "residual activity", "setting": "[39]", "value": 91, "unit": "%"}, {"measurement": "residual activity", "setting": "[40]", "value": 92, "unit": "%"}, {"measurement": "residual activity", "setting": "[41]", "value": 74, "unit": "%"}, {"measurement": "residual activity", "setting": "[42]", "value": 100, "unit": "%"}, {"measurement": "residual activity", "setting": "[43]", "value": 93, "unit": "%"}, {"measurement": "residual activity", "setting": "[44]", "value": 100, "unit": "%"}]}
{"smiles": "N#CC1(c2ccccn2)CCN(Cc2cc(C(=O)N3CCCC3)c(=O)n3ccccc23)CC1", "values": [{"measurement": "residual activity", "setting": "[1]", "value": 100, "unit": "%"}, {"measurement": "residual activity", "setting": "[2]", "value": 95, "unit": "%"}, {"measurement": "residual activity", "setting": "[3]", "value": 84, "unit": "%"}, {"measurement": "residual activity", "setting": "[4]", "value": 87, "unit": "%"}, {"measurement": "residual activity", "setting": "[5]", "value": 53, "unit": "%"}, {"measurement": "residual activity", "setting": "[6]", "value": 82, "unit": "%"}, {"measurement": "residual activity", "setting": "[7]", "value": 84, "unit": "%"}, {"measurement": "residual activity", "setting": "[8]", "value": 100, "unit": "%"}, {"measurement": "residual activity", "setting": "[9]", "value": 85, "unit": "%"}, {"measurement": "residual activity", "setting": "[10]", "value": 90, "unit": "%"}, {"measurement": "residual activity", "setting": "[11]", "value": 89, "unit": "%"}, {"measurement": "residual activity", "setting": "[12]", "value": 97, "unit": "%"}, {"measurement": "residual activity", "setting": "[13]", "value": 96, "unit": "%"}, {"measurement": "residual activity", "setting": "[14]", "value": 93, "unit": "%"}, {"measurement": "residual activity", "setting": "[15]", "value": 74, "unit": "%"}, {"measurement": "residual activity", "setting": "[16]", "value": 90, "unit": "%"}, {"measurement": "residual activity", "setting": "[17]", "value": 98, "unit": "%"}, {"measurement": "residual activity", "setting": "[18]", "value": 83, "unit": "%"}, {"measurement": "residual activity", "setting": "[19]", "value": 100, "unit": "%"}, {"measurement": "residual activity", "setting": "[20]", "value": 71, "unit": "%"}, {"measurement": "residual activity", "setting": "[21]", "value": 98, "unit": "%"}, {"measurement": "residual activity", "setting": "[22]", "value": 86, "unit": "%"}, {"measurement": "residual activity", "setting": "[23]", "value": 95, "unit": "%"}, {"measurement": "residual activity", "setting": "[24]", "value": 100, "unit": "%"}, {"measurement": "residual activity", "setting": "[25]", "value": 96, "unit": "%"}, {"measurement": "residual activity", "setting": "[26]", "value": 100, "unit": "%"}, {"measurement": "residual activity", "setting": "[27]", "value": 30, "unit": "%"}, {"measurement": "residual activity", "setting": "[28]", "value": 90, "unit": "%"}, {"measurement": "residual activity", "setting": "[29]", "value": 88, "unit": "%"}, {"measurement": "residual activity", "setting": "[30]", "value": 60, "unit": "%"}, {"measurement": "residual activity", "setting": "[31]", "value": 92, "unit": "%"}, {"measurement": "residual activity", "setting": "[32]", "value": 76, "unit": "%"}, {"measurement": "residual activity", "setting": "[33]", "value": 87, "unit": "%"}, {"measurement": "residual activity", "setting": "[34]", "value": 85, "unit": "%"}, {"measurement": "residual activity", "setting": "[35]", "value": 58, "unit": "%"}, {"measurement": "residual activity", "setting": "[36]", "value": 90, "unit": "%"}, {"measurement": "residual activity", "setting": "[37]", "value": 98, "unit": "%"}, {"measurement": "residual activity", "setting": "[38]", "value": 100, "unit": "%"}, {"measurement": "residual activity", "setting": "[39]", "value": 78, "unit": "%"}, {"measurement": "residual activity", "setting": "[40]", "value": 83, "unit": "%"}, {"measurement": "residual activity", "setting": "[41]", "value": 82, "unit": "%"}, {"measurement": "residual activity", "setting": "[42]", "value": 100, "unit": "%"}, {"measurement": "residual activity", "setting": "[43]", "value": 76, "unit": "%"}, {"measurement": "residual activity", "setting": "[44]", "value": 87, "unit": "%"}]}
